Laboratory results as given in patent publication US20110081675A1, “Metabolic Biomarkers Of Drug-Induced Cardiotoxicity” (WISCONSIN ALUMNI RESEARCH FOUNDATION, priority 2009, published 2011).

Key:
human cardiomyocytes = tested on: human cardiomyocytes
Procedure: The percentage of cell death, inherently and after drug treatment, was calculated by Trypan Blue staining (FIG. 2).
The doses for each compound were based upon published standards, equivalent to therapeutic circulating levels whenever possible (see Table 1).

[1] = tested on: human cardiomyocytes (Celprogen 36044-15at); experiment: LC-ESI-TOF-MS metabolomics of extracellular media of drug-treated human cardiomyocytes (Tables 2A-2C); format: cell-based; details: for doxfold: 26uM Doxorubicin; for tamfold: 15uM tamoxifen
Procedure: Data for statistical analysis were extracted from chromatograms using the Agilent Mass Hunter software (Product No. G3297AA, Agilent Technologies, Inc., Santa Clara, Calif.); it will be understood that alternative statistical analysis methods can be used. Masses were binned together if they were within 10 ppm and eluted within a 2 minutes retention time window. A binned mass was considered to be the same molecule across different LC-ESI-TOF-MS analyses (referred to herein as an “exact mass,” which will be understood to be ±10 ppm). Binning of the data is required for statistical analysis and comparison of masses across the entire experiment. If multiple peaks with the same mass at the same retention time within a single sample were detected by Mass Hunter, they were averaged to assist data analysis. Masses lacking a natural isotopic distribution or with an absolute height of less than 1000 were removed from the data prior to analysis. It would be understood that the results from this assay provide relative values that are assessed according to annotated values within 10 ppm to provide an identity for the molecular weight detected. Thus, a mass shift within 10 ppm is considered consistent with determining the identity of a specific cellular metabolite previously annotated due to differences in ionization source and instrumentation, e.g. between different experiments or using different instruments.
As used herein, a mass was considered to be the same across LC/ESI-TOF-MS runs using a simple algorithm that first sorts the data by mass and retention time. […] If a series of measurements fit this definition it was considered to be from the same compound. If either the mass or the retention time varied by more than the limits listed above it was considered to be a different compound and given a new unique designation.
The data from the most reproducible mass features was log base 2 transformed and median centered prior to statistical analysis. […] To test the null hypothesis a one way permutation based t-test assuming a normal approximation of the conditional distribution was used and implement using the Conditional Inference Procedures in a Permutation Test Framework (Coin) library, a contributed package of programming code. Statistics tests were performed without replacement of missing values decrease the degrees of freedom rather than imputing missing values. […] False discovery rates (FDR) were controlled using the Q value estimator (Storey et al., 2003, Proc Natl Acad. Sci., 100:9440-5) and implemented using the qvalue library in R (Dabney et al., 2003, qvalue: Q-value estimation for false discovery rate control. R package version 1.10.0., www.CRAN.R-project.org).
The extracellular media from treated and untreated cells was processed as described in Cezar et al., (2007, Stem Cells Development 16: 869-882, this publication is incorporated by reference), for extraction of low molecular weight molecules (<3 kD) for metabolomics analysis. Extracellular low molecular weight molecule preparations were separated by liquid chromatography followed by electrospray ionization time of flight (LC-ESI-TOF-MS) mass spectrometry for ionization and detection of the full spectra of low molecular weight molecules present in each sample. More specifically, the samples were separated using the ESI_Luna_HILIC—95_t—06OACN—16 min method (HILIC chromatography). Statistical differences were inferred by subsequent bioinformatics and in silico mapping of deisotoped ESI-TOF-MS mass features as described below (also provided in Cezar et al. (2007, id.)).
Briefly, ionization (100 m/z-1500 m/z) was acquired on an Agilent 6520 Accurate-Mass Q-TOF in extended dynamic range and positive mode. Mass features were generated using two independent methods. First MassHunter Qualitative Analysis was used to generate mass features using the Molecular Feature Extraction algorithm (MFE).

[2] = feature cpdID 36, neutral mass 101.1204, RT 0.720145, Triethylamine or Hexylamine
[3] = feature cpdID 8902, neutral mass 276.1256, RT 8.733378, no hit
[4] = feature cpdID 11232, neutral mass 311.1029, RT 7.400847, p-Glucosyloxymandelonitrile or (S)-4-Hydroxymandelonitrile beta-D-glucoside
[5] = feature cpdID 14190, neutral mass 356.253, RT 1.103957, HMDB04239, 13,14-dihydro PGE1 or Prostaglandin F1alpha
[6] = feature cpdID 16504, neutral mass 393.0913, RT 7.25538, no hit
[7] = feature cpdID 16939, neutral mass 400.2796, RT 1.108613, 7-Ketocholesterol
[8] = feature cpdID 17096, neutral mass 403.1776, RT 6.2306, no hit
[9] = feature cpdID 19500, neutral mass 444.3034, RT 1.106333, […]-Dihydroxyvitamin D3-26,23-lactone
[10] = feature cpdID 19704, neutral mass 448.1344, RT 7.184483, no hit
[11] = feature cpdID 21926, neutral mass 488.3323, RT 1.106573, no hit
[12] = feature cpdID 23163, neutral mass 516.1241, RT 7.217222, Formononetin 7-O-glucoside-6″-O-malonate, Isochlorogenic acid b or 13-Dicaffeoylquinic acid
[13] = feature cpdID 24142, neutral mass 538.2779, RT 0.783395, no hit
[14] = feature cpdID 25561, neutral mass 575.2051, RT 7.271724, no hit
[15] = feature cpdID 25601, neutral mass 576.3861, RT 1.10751, 3-Hexaprenyl-4-hydroxy-5-methoxybenzoic acid
[16] = feature cpdID 27363, neutral mass 620.4117, RT 1.108317, no hit
[17] = feature cpdID 28720, neutral mass 661.1924, RT 6.495524, no hit
[18] = feature cpdID 29101, neutral mass 672.1828, RT 6.528464, no hit
[19] = feature cpdID 29227, neutral mass 676.1781, RT 1.298314, no hit
[20] = feature cpdID 31637, neutral mass 744.1091, RT 1.26415, no hit
[21] = feature cpdID 33162, neutral mass 791.2316, RT 6.496594, no hit
[22] = feature cpdID 37905, neutral mass 932.2608, RT 6.542554, no hit
[23] = feature cpdID 37938, neutral mass 933.3726, RT 8.330596, no hit
[24] = feature cpdID 42137, neutral mass 1122.172, RT 1.256606, no hit
[25] = feature cpdID 45209, neutral mass 1300.402, RT 6.501484, no hit
[26] = feature cpdID 45486, neutral mass 1322.385, RT 6.518707, no hit

COc1cccc2c1C(=O)c1c(O)c3c(c(O)c1C2=O)C[C@@](O)(C(=O)CO)C[C@@H]3O[C@H]1C[C@H](N)[C@H](O)[C@H](C)O1 [Doxorubicin]
cell death (in words) (human cardiomyocytes): significantly higher cell death
doxfold [1, 2]: −1.186 fold
doxfold [1, 3]: 2.438 fold
doxfold [1, 4]: 5.193 fold
doxfold [1, 5]: 12.32 fold
doxfold [1, 6]: 1.09 fold
doxfold [1, 7]: 11.7 fold
doxfold [1, 8]: −2.02 fold
doxfold [1, 9]: 16.24 fold
doxfold [1, 10]: 2.122 fold
doxfold [1, 11]: 7.799 fold
doxfold ([1]; feature cpdID 23129, neutral mass 515.181, RT 10.44297, no hit): 1.178 fold
doxfold [1, 12]: 2.198 fold
doxfold [1, 13]: 1.559 fold
doxfold ([1]; feature cpdID 25445, neutral mass 572.1055, RT 7.089848, no hit): 1.199 fold
doxfold [1, 14]: 2.11 fold
doxfold [1, 15]: 4.776 fold
doxfold [1, 16]: 2.836 fold
doxfold [1, 17]: 1.096 fold
doxfold [1, 18]: 2.172 fold
doxfold ([1]; feature cpdID 29124, neutral mass 672.6836, RT 6.559082, no hit): 1.282 fold
doxfold [1, 19]: −6.816 fold
doxfold [1, 20]: −1.423 fold
doxfold [1, 21]: 1.817 fold
doxfold [1, 22]: 1.663 fold
doxfold ([1]; feature cpdID 37922, neutral mass 932.7613, RT 6.562271, no hit): 1.324 fold
doxfold [1, 23]: 1.117 fold
doxfold ([1]; feature cpdID 40510, neutral mass 1040.322, RT 6.499979, no hit): 1.351 fold
doxfold [1, 24]: −3.594 fold
doxfold [1, 25]: 1.838 fold
doxfold [1, 26]: 1.667 fold

CC/C(=C(\c1ccccc1)c1ccc(OCCN(C)C)cc1)c1ccccc1 [Tamoxifen]
tamfold [1, 2]: 1.889 fold
tamfold [1, 3]: 2.064 fold
tamfold [1, 4]: 1.708 fold
tamfold [1, 5]: 11.4 fold
tamfold ([1]; feature cpdID 15112, neutral mass 372.0557, RT […], no hit): −1.266 fold
tamfold [1, 6]: 1.21 fold
tamfold [1, 7]: 10.16 fold
tamfold [1, 8]: −1.832 fold
tamfold [1, 9]: 15.8 fold
tamfold [1, 10]: 1.975 fold
tamfold [1, 11]: 7.564 fold
tamfold [1, 12]: 1.75 fold
tamfold [1, 13]: 2.706 fold
tamfold [1, 14]: −1.008 fold
tamfold [1, 15]: 5.478 fold
tamfold [1, 16]: 3.46 fold
tamfold [1, 17]: 1.185 fold
tamfold [1, 18]: 2.364 fold
tamfold [1, 19]: −1.514 fold
tamfold [1, 20]: 1.02 fold
tamfold [1, 21]: 1.968 fold
tamfold [1, 22]: 1.8 fold
tamfold [1, 23]: 1.939 fold
tamfold [1, 24]: −1.752 fold
tamfold [1, 25]: 1.731 fold
tamfold [1, 26]: 1.765 fold
